For eleven molecules, inhibition of growth and Observed efficacy results are on record in patent US11839214B2, “Fungicidal mixture comprising substituted pyridines” (BASF SE, priority 2017, dated 2023).

Read-outs that look alike come from different tables or passages of the source.

Assay type in all cases: cell-based
Experiment [1] deals with Pyricularia oryzae. Kind of experiment: microbe, parasite or virus in culture. The following applies: for Observed efficacy: single active compound.
In experiment [2] the test system is Sclerotinia sclerotiorum. The experiment is described as follows: Activity against Sclerotinia sclerotiorum in the microtiterplate test. The settings on record: Sclerotinia sclerotiorum, 168 h, read-out: Observed efficacy.
For experiment [3], the system named is Septoria tritici. The experiment is described as follows: Activity against leaf blotch on wheat caused by Septoria tritici (microtiterplate test).
The test system of experiment [4] is Botrytis cinerea. Kind of experiment: Activity against the grey mold Botrytis cinerea in the microtiterplate test.
Where [5] appears, read: Pyricularia oryzae, 168 h, read-out: Observed efficacy.
Where [6] appears, read: single active compound, 0.25 ppm.
[7] abbreviates: Zymoseptoria tritici, 168 h, read-out: Observed efficacy.
[8] abbreviates: Zymoseptoria tritici, 168 h, single active, 4 ppm, read-out: Observed efficacy.
The mark [9] stands for this setting: Zymoseptoria tritici, 168 h, single active, read-out: Observed efficacy.
[10] abbreviates: Botrytis cinerea, 168 h, single active compound, 4 ppm, read-out: Observed efficacy.
The mark [11] stands for this setting: Botrytis cinerea, 168 h, single active compound, read-out: Observed efficacy.

Turning to `O=[N+]([O-])c1cc(C(F)(F)F)c(Cl)c([N+](=O)[O-])c1Nc1ncc(C(F)(F)F)cc1Cl` [Fluazinam, fluazinam], the inhibition of growth at 0.063 ppm in experiment [1] (setting [5]) came to 6%. The inhibition of growth at 0.25 ppm in experiment [2] (setting [6]) stood at 58%.
As to `N#Cc1c[nH]cc1-c1cccc2c1OC(F)(F)O2` [Fludioxonil, fludioxonil], in experiment [1] (setting [5]), the inhibition of growth at 0.004 ppm was 16%, the inhibition of growth at 0.016 ppm stood at 35% and the inhibition of growth at 0.063 ppm was 40%. Moreover, the inhibition of growth at 0.25 ppm in experiment [3] (setting [7]) came to 10%. Moreover, the inhibition of growth at 0.016 ppm in experiment [2] was determined as 13%.
`Cc1cc(OC(C)C)ccc1C(=O)C(C)(C)NC(=O)c1sccc1C` [Isofetamid, isofetamid]: the Observed efficacy in experiment [1] (1 ppm) was 1%; in experiment [1] (4 ppm), 10%; in experiment [3] (single active, 0.25 ppm) it was 44%; in experiment [4] (single active compound, 1 ppm), 68%.
For `CC(C)c1ccc(Cl)cc1CN(C(=O)c1c(C(F)F)nn(C)c1F)C1CC1` [Isoflucypram, isoflucypram], the Observed efficacy was 14% in experiment [1] (1 ppm); 72% in experiment [3] (single active, 0.063 ppm); 59% in experiment [4] (setting [6]).
Consider `COc1cc(C)c(C(=O)c2c(OC)ccc(Br)c2C)c(OC)c1OC` [Metrafenon, metrafenone], for which the inhibition of growth at 1 ppm in experiment [1] (setting [5]) was 2%. Also, the inhibition of growth at 4 ppm in experiment [1] (setting [5]) was 7%; in experiment [3] (setting [8]) it was 4%; in experiment [4] (setting [10]), 3%. Also, the inhibition of growth at 16 ppm turned out to be 16% in experiment [3] (setting [9]) and 18% in experiment [4] (setting [11]).
Take `C=CCOC1=NS(=O)(=O)c2ccccc21` [Probenazol, probenazole]: in experiment [1] (setting [5]), the inhibition of growth at 4 ppm came out at 2% and the inhibition of growth at 16 ppm worked out at 12%. The inhibition of growth at 4 ppm in experiment [3] (setting [8]) worked out at 4%. Besides, the inhibition of growth at 63 ppm in experiment [4] (setting [11]) came to 22%.
In the case of `Cc1cc(C)nc(Nc2ccccc2)n1` [Pyrimethanil, pyrimethanil], the inhibition of growth at 1 ppm in experiment [3] (Zymoseptoria tritici, 168 h, single active, 1 ppm, read-out: Observed efficacy) was found to be 6%; in experiment [4] (Botrytis cinerea, 168 h, single active compound, 1 ppm, read-out: Observed efficacy) it was 50%; in experiment [2] (single active compound, 1 ppm), 15%. Besides, the inhibition of growth at 16 ppm in experiment [3] (setting [9]) is 21%. Moreover, the inhibition of growth at 4 ppm in experiment [4] (setting [10]) is 72%; in experiment [2] (single active compound, 4 ppm), 21%.
Turning to `FC(F)C(F)(F)OCC(Cn1cncn1)c1ccc(Cl)cc1Cl` (centres unmarked) [Tetraconazol, tetraconazole], the inhibition of growth at 0.063 ppm turned out to be 7% in experiment [1] (setting [5]); 12% in experiment [3] (Zymoseptoria tritici, 168 h, single active, 0.063 ppm, read-out: Observed efficacy); 5% in experiment [4] (setting [11]). Also, the inhibition of growth at 0.004 ppm in experiment [3] (Zymoseptoria tritici, 168 h, single active, 0.004 ppm, read-out: Observed efficacy) is 6%.
Regarding `Cc1nc(C(F)(F)F)c(C(=O)Nc2c(Br)cc(OC(F)(F)F)cc2Br)s1` [Thifluzamid, thifluzamide], in experiment [1] (setting [5]), the inhibition of growth at 1 ppm stood at 2%. Further, the inhibition of growth at 4 ppm was determined as 16% in experiment [1] (setting [5]); 69% in experiment [3] (setting [7]); 37% in experiment [4] (Botrytis cinerea, 168 h, read-out: Observed efficacy).
On to `Cc1ccc(NC(=O)c2snnc2C)cc1Cl` [Tiadinil, tiadinil], for which the inhibition of growth at 4 ppm worked out at 2% in experiment [1] (setting [5]) and 21% in experiment [3] (setting [8]). Further, the inhibition of growth at 16 ppm came out at 10% in experiment [1] (setting [5]), 18% in experiment [3] (setting [9]) and 6% in experiment [4] (setting [11]). Besides, the inhibition of growth at 63 ppm was 21% in experiment [1] (setting [5]); 30% in experiment [3] (Zymoseptoria tritici, 168 h, single active, 63 ppm, read-out: Observed efficacy); 19% in experiment [4] (setting [11]).
With `CON=C(C(=O)OC)c1ccccc1CON=C(C)c1cccc(C(F)(F)F)c1` [Trifloxystrobin, trifloxystrobin], in experiment [1] (setting [5]), the inhibition of growth at 0.004 ppm was determined as 8% and the inhibition of growth at 0.016 ppm was 23%. The inhibition of growth at 0.016 ppm in experiment [3] (Zymoseptoria tritici, 168 h, single active, 0.016 ppm, read-out: Observed efficacy) worked out at 27%. The inhibition of growth at 0.063 ppm in experiment [4] (setting [11]) was 4%.
